Assay results published in publication PMC3118939 (Chemical research in toxicology, 2011).
Like-named read-outs stand apart in the source and are kept apart here.

What was measured:
[1] = tested on: hypoxanthine phosphoribosyl transferase (hprt) gene of Chinese hamster ovary cells (CHO); format: cell-based; details: estimated from ref 53, 69-71
human hepatocytes [2] = details: cited from earlier work; for dose metabolized in human hepatocyte preparations: 10 μM dose; for dose that underwent metabolism: human hepatocytes, 10 μM, after 24 h incubation, previous studies
P450 1A2 = details: human versus rat P450 1A2; cited from earlier work
rat hepatocytes = details: cited from earlier work; for extent of metabolism in rat hepatocytes: even after 24 h; for N-oxidation products as share of the dose: rat hepatocytes
human hepatocytes [3] = assay: 4-ABP and HAA biotransformation in human hepatocytes; format: in vitro ADME; details: PhIP 10 μM in human hepatocytes
human hepatocytes [4] = assay: 4-ABP- and HAA-DNA adduct formation in freshly cultured human hepatocytes; details: carcinogen 10 μM, 24 h incubation
rodents = details: cited from earlier work
CDF1 mice = details: cited from earlier work
[5] = tested on: colon of C57BL/6 mice (Big Blue mouse); details: cited from earlier work
colon of C57BL/6 mice = details: cited from earlier work
rat = rat model; cited from earlier work

| Compound | DNA adduct formation, Adducts per 10^7 Bases (human hepatocytes [4]; human hepatocytes donor HH A) [Adducts per 10^7 Bases] | DNA adduct formation, Adducts per 10^7 Bases (human hepatocytes [4]; human hepatocytes donor HH B) [Adducts per 10^7 Bases] | DNA adduct formation, Adducts per 10^7 Bases (human hepatocytes [4]; human hepatocytes donor HH C) [Adducts per 10^7 Bases] | DNA adduct formation, Adducts per 10^7 Bases (human hepatocytes [4]; human hepatocytes donor HH D) [Adducts per 10^7 Bases] | DNA adduct formation, Adducts per 10^7 Bases (human hepatocytes [4]; human hepatocytes donor HH F) [Adducts per 10^7 Bases] | DNA adduct formation, Adducts per 10^7 Bases (human hepatocytes [4]; human hepatocytes donor HH G) [Adducts per 10^7 Bases] | DNA adduct formation, Adducts per 10^7 Bases (human hepatocytes [4]; human hepatocytes donor HH H) [Adducts per 10^7 Bases] | further results |
| --- | --- | --- | --- | --- | --- | --- | --- | --- |
| Cn1c(N)nc2ncc(-c3ccccc3)cc21 [PhIP, 2-amino-1-methyl-6-phenylimidazo[4,5-b]pyridine] | – | – | – | – | – | – | – | hprt mutants induced by one dG-C8 adduct per 10^7 bases in the CHO genome ([1]; dose concentration 1.2 μM): ~2.8 hprt mutants per one million c; dose metabolized in human hepatocyte preparations (human hepatocytes [2]): > 75%; dose that underwent metabolism (human hepatocytes [2]): up to 97%; catalytic efficiency of N-oxidation, human P450 1A2 superior to rat P450 1A2 (P450 1A2): 19 fold; extent of metabolism in rat hepatocytes (rat hepatocytes): poorly metabolized; N-oxidation products as share of the dose (rat hepatocytes): less than 2% |
| Cn1c(=NO)n([C@@H]2O[C@H](C(=O)O)[C@@H](O)[C@H](O)[C@H]2O)c2ncc(-c3ccccc3)cc21 [HONH-N3-PhIP] | – | – | – | – | – | – | – | level of metabolite formed, lower than HON-PhIP-N^2-Gl (human hepatocytes [3]): ~ 10 fold |
| Cc1cnc2ccc3c(nc(Nc4nc5c(=O)[nH]c(N)nc5n4[C@H]4C[C@H](O)[C@@H](CO)O4)n3C)c2n1 [dG-C8-MeIQx, N-(deoxyguanosin-8-yl)-MeIQx] | 3.4 ± 0.3 | 12.4 ± 0.6 | 13.9 ± 0.2 | 12.2 ± 3.5 | 19.0 ± 1.9 | 16.1 ± 1.0 | 5.1 ± 0.1 | – |
| Nc1ccc(-c2ccccc2)cc1 [4-ABP, 4-aminobiphenyl] | – | – | – | – | – | – | – | hprt mutants induced by one dG-C8 adduct per 10^7 bases in the CHO genome ([1]; dose concentration 2 μM): ~ 0.7 hprt mutants per one million c; cancer induction (rodents): induces cancer of the urinary bladder, liver, and mammary gland |
| Nc1nc2c(nc(Nc3ccc4c(n3)[nH]c3ccccc34)n2[C@H]2C[C@H](O)[C@@H](CO)O2)c(=O)[nH]1 [dG-C8-AαC, N-(Deoxyguanosin-8-yl)-AαC] | – | 32.5 ± 1.8 | 44.4 ± 5.6 | 109 ± 6.4 | 72.0 ± 5.9 | 82.0 ± 15.4 | 31.4 ± 3.3 | – |
| Nc1nc2c(nc(Nc3ccc(-c4ccccc4)cc3)n2[C@H]2C[C@H](O)[C@@H](CO)O2)c(=O)[nH]1 [dG-C8-4-ABP, N-(Deoxyguanosin-8-yl)-4-aminobiphenyl] | – | 150 | 38.8 ± 4.8 | 100 | 49.0 ± 1.7 | 87.9 ± 8.3 | 70.0 ± 5.8 | – |
| Cn1c(Nc2nc3c(=O)[nH]c(N)nc3n2[C@H]2C[C@H](O)[C@@H](CO)O2)nc2ncc(-c3ccccc3)cc21 [dG-C8-PhIP, N-(deoxyguanosin-8-yl)-PhIP] | 13.4 ± 1.7 | 22.0 | 7.5 ± 1.6 | 7.7 ± 1.0 | 14.0 ± 0.6 | 30.6 ± 2.4 | 6.0 ± 1.0 | – |
| Cn1c(Nc2nc3c(=O)[nH]c(N)nc3n2[C@H]2C[C@H](O)[C@@H](CO)O2)nc2c3cccnc3ccc21 [dG-C8-IQ, N-(deoxyguanosin-8-yl)-IQ] | 9.8 ± 1.1 | 10.3 ± 0.6 | 18.3 ± 0.8 | 26.2 ± 1.9 | – | 13.5 ± 1.5 | 7.0 ± 2.2 | – |
| Nc1ccc2c(n1)[nH]c1ccccc12 [AαC, 2-amino-9H-pyrido[2,3-b]indole] | – | – | – | – | – | – | – | hprt mutants induced by one dG-C8 adduct per 10^7 bases in the CHO genome ([1]; dose concentration 1.5 μM): ~2.5 hprt mutants per one million c; tumor induction (CDF1 mice): causes liver and blood vessel tumors; lacI transgene mutagenicity [5]: potent lacI transgene mutagen; aberrant crypt foci (colon of C57BL/6 mice): induces aberrant crypt foci; hepatocarcinogenicity (rat): not a hepatocarcinogen |
| Cc1cnc2ccc3c(nc(N)n3C)c2n1 [MeIQx, 2-amino-3,8-dimethylimidazo[4,5-f]quinoxaline] | – | – | – | – | – | – | – | hprt mutants induced by one dG-C8 adduct per 10^7 bases in the CHO genome ([1]; dose concentration 1.5 μM): about 1.5 hprt mutants per one million c; dose metabolized in human hepatocyte preparations (human hepatocytes [2]): > 75%; dose that underwent metabolism (human hepatocytes [2]): up to 97%; catalytic efficiency of N-oxidation, human P450 1A2 superior to rat P450 1A2 (P450 1A2): 11 fold; extent of metabolism in rat hepatocytes (rat hepatocytes): poorly metabolized; N-oxidation products as share of the dose (rat hepatocytes): less than 2% |
